Drawing on article PMC6529808 (Metallomics : integrated biometal science, 2018), this text covers Kd2 for 1 compound.

The target of this assay is MhuDCH (Mycobacterium tuberculosis, UniProt P9WKH3). Type of assay: binding. The note with it: second site (MhuD-diheme); 5 μM protein, 50 mM Tris pH 7.4, 150 mM NaCl.
Sequence of MhuDCH (P9WKH3 whole entry): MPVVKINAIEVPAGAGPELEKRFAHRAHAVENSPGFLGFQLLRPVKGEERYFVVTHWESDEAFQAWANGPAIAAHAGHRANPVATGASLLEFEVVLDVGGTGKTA

In turn, `C=CC1=C(C)C2=Cc3c(C=C)c(C)c4[n]3[Fe][n]3c(c(C)c(CCC(=O)O)c3=CC3=NC(=C4)C(C)=C3CCC(=O)O)=CC1=N2` [heme] displayed a Kd2 of 3.3 ± 1.1 µM.
